Values joined by “and” are separate entries in the source; they are usually repeats but may differ in a detail not shown here. Identical values can stand only once.
Legend:
KRAS^G12S = KRAS^G12S (Homo sapiens, UniProt P01116+P62937, G12S); experiment: Cellular RAS–CYPA binding (tri-complex formation), nano-BRET in U2OS cells; format: cell-based; design: expressed in transfected cells; host or cells: U2OS PPIA-KO; details: (95% CI)
Description: (§1) KRAS4B, or other small GTPases, containing the indicated mutations were cloned in pNLF-N or pHTN plasmids for expression with an N-terminal nanoluciferase or HaloTag fusion, respectively. […] The following day, the cells were collected by Trypsin and reseeded in a white tissue culture-treated 96-well plate in OptiMem phenol red-free medium (Gibco) containing 4% FBS and a 1:1,000 dilution of NanoBRET 618 HaloTag ligand (Promega). For endpoint concentration response curves, vivazine nanoluciferase substrate was added to 1× concentration in OptiMem phenol red-free medium with 4% FBS. Varying concentrations of inhibitor were added and incubated for 1 or 4 h before the nano-BRET signal was measured on a Perkin Elmer Envision plate reader. For kinetic assays, endurazine nanoluciferase substrate was used in place of vivazine, and the plate was placed in a Cytation5 multi-mode reader pre-equilibrated to 37 °C and 5% CO2.

KRAS^G12V = KRAS^G12V (Homo sapiens, UniProt P01116+P62937, G12V); experiment: as above; format: cell-based; design: expressed in transfected cells; host or cells: U2OS PPIA-KO; details: for Cellular milliBRET signal between CYPA and KRAS G12V: KRASG12V, single replicates
Description: as §1

HRAS WT = HRAS WT (Homo sapiens, UniProt P01112+P62937); experiment: RAS binding affinity of compound-bound CYPA (Kd2), SPR; details: steady state SPR, (95% CI)
KRAS^G12D = KRAS^G12D (Homo sapiens, UniProt P01116+P62937, G12D); experiment: Cellular RAS–RAF (CRAF RBD) disruption, nano-BRET in U2OS cells; format: cell-based; design: expressed in transfected cells; host or cells: U2OS; details: (95% CI)
Description: as §1

KRAS WT = KRAS WT (Homo sapiens, UniProt P01116+P62937); experiment: as above; format: cell-based; design: expressed in transfected cells; host or cells: U2OS; details: (95% CI)
Description: as §1

KRAS^G13C = KRAS^G13C (Homo sapiens, UniProt P01116+P62937, G13C); experiment: as above; format: cell-based; design: expressed in transfected cells; host or cells: U2OS; details: (95% CI)
Description: as §1

KRAS^G12R = KRAS^G12R (Homo sapiens, UniProt P01116+P62937, G12R); experiment: as above; format: cell-based; design: expressed in transfected cells; host or cells: U2OS; details: (95% CI)
Description: as §1

KRAS^G12C [1] = biological target: T1, KRAS^G12C (Homo sapiens, UniProt P01116+P62937, G12C); experiment: as above; format: cell-based; design: expressed in transfected cells; host or cells: U2OS; details: (95% CI)
Description: as §1

[2] = system: Capan-1, SW620, AsPC-1, HPAC, NCI-H358, PSN1, HUPT3, HCT 116, Hs 766T, SK-MEL-30, KU1919, NCI-H1975, A375; experiment: pERK (AlphaLISA) in human cancer cell lines; format: cell-based
Description: Data points show biological duplicates normalized to vehicle control. […] Data points show biological duplicates normalized to vehicle control from 1 of 2–26 independent experiments. Source Data

[3] = system: NCI-H358 cells (CYPA-high, CYPA-low); experiment: pERK (MSD) in NCI-H358 cells with low or high CYPA; details: NCI-H358, doxycycline-inducible CYPA
Description: NCI-H358 cells were transduced by lentivirus encoding Cas9, a guide RNA targeting PPIA (which encodes CYPA), and the puromycin resistance gene at WarpDrive Bio. Following puromycin selection, Flag–CYPA was introduced under the control of a tet-inducible promoter by lentivirus. Clones with high and low expression levels of Flag–CYPA were isolated at Revolution Medicines.

KRAS^G13D = KRAS^G13D (Homo sapiens, UniProt P01116+P62937, G13D); experiment: Cellular RAS–CYPA binding (tri-complex formation), nano-BRET in U2OS cells; format: cell-based; details: (95% CI)
Description: as §1

KRAS^G12C [4] = biological target: T1, KRAS^G12C; experiment: RAS binding affinity of compound-bound CYPA (Kd2), SPR; design: His6-TEV (N); made in house; host or cells: BL21(DE3) Escherichia coli; details: steady state SPR, (95% CI)
NRAS^Q61R = NRAS^Q61R (Homo sapiens, UniProt P01111+P62937, Q61R); experiment: as above; details: steady state SPR, (95% CI)
KRAS^Q61H = KRAS^Q61H (Homo sapiens, UniProt P01116+P62937, Q61H); experiment: Cellular RAS–RAF (CRAF RBD) disruption, nano-BRET in U2OS cells; format: cell-based; design: expressed in transfected cells; host or cells: U2OS or U2OS PPIA-KO; details: (95% CI)
Description: as §1

KRAS^G12A = KRAS^G12A (Homo sapiens, UniProt P01116+P62937, G12A); experiment: as above; format: cell-based; design: expressed in transfected cells; host or cells: U2OS or U2OS PPIA-KO; details: (95% CI)
Description: as §1

CCn1c(-c2cc(N3CCN(C4CC4)CC3)cnc2[C@H](C)OC)c2c3cc(ccc31)-c1csc(n1)C[C@H](NC(=O)[C@H]1[C@@H]3COC[C@@H]31)C(=O)N1CCC[C@H](N1)C(=O)OCC(C)(C)C2 [RMC-7977]
EC50 (KRAS^G12S): 2.24 nM | Cellular milliBRET signal between CYPA and KRAS G12V (KRAS^G12V; RMC-7977 0.152 nM): 1.173 milliBRET and 1.06 milliBRET and 0.9358 milliBRET and 1.334 milliBRET and 1.012 milliBRET and 1.508 milliBRET | Cellular milliBRET signal between CYPA and KRAS G12V (KRAS^G12V; RMC-7977 0.457 nM): 1.649 milliBRET and 2.359 milliBRET and 1.781 milliBRET and 2.809 milliBRET and 1.779 milliBRET and 2.2094 milliBRET | Cellular milliBRET signal between CYPA and KRAS G12V (KRAS^G12V; RMC-7977 1.372 nM): 4.1167 milliBRET and 4.336 milliBRET and 3.9 milliBRET and 4.218 milliBRET and 4.578 milliBRET and 4.094 milliBRET | Cellular milliBRET signal between CYPA and KRAS G12V (KRAS^G12V; RMC-7977 4.115 nM): 7.461 milliBRET and 7.409 milliBRET and 7.89 milliBRET and 7.071 milliBRET and 7.622 milliBRET and 7.676 milliBRET | Cellular milliBRET signal between CYPA and KRAS G12V (KRAS^G12V; RMC-7977 12.346 nM): 11.4839 milliBRET and 11.5824 milliBRET and 12.0176 milliBRET and 11.1912 milliBRET and 11.5065 milliBRET and 11.1163 milliBRET | Cellular milliBRET signal between CYPA and KRAS G12V (KRAS^G12V; RMC-7977 37.037 nM): 13.6301 milliBRET and 14.0182 milliBRET and 13.661 milliBRET and 13.6725 milliBRET and 13.3211 milliBRET and 13.487 milliBRET | Cellular milliBRET signal between CYPA and KRAS G12V (KRAS^G12V; RMC-7977 111.111 nM): 14.1557 milliBRET and 14.0898 milliBRET and 14.0287 milliBRET and 13.9679 milliBRET and 13.745 milliBRET and 13.7924 milliBRET | Cellular milliBRET signal between CYPA and KRAS G12V (KRAS^G12V; RMC-7977 333.333 nM): 14.0834 milliBRET and 13.7044 milliBRET and 13.6567 milliBRET and 12.9685 milliBRET and 13.078 milliBRET and 12.7653 milliBRET | Cellular milliBRET signal between CYPA and KRAS G12V (KRAS^G12V; RMC-7977 1000.000 nM): 14.1055 milliBRET and 12.901 milliBRET and 13.6313 milliBRET and 12.8159 milliBRET and 14.3526 milliBRET and 13.1398 milliBRET | EC50 (KRAS^G12V; KRAS^G12V, nano-BRET, (95% CI)): 2.25 nM | Kd (HRAS WT): 94.7 nM | EC50 (KRAS^G12D): 9.5 nM | EC50 (KRAS WT): 34.5 nM | EC50 (KRAS^G13C): 17.2 nM | EC50 (KRAS^G12R): 21.2 nM | EC50 (KRAS^G12C [1]): 5.06 nM | pERK of RAS mutant and RAS WT cell lines treated with RMC-7977 ([2]; CAPAN1, RMC-7977 1.52 nM): 19.123 and 19.8052 | pERK of RAS mutant and RAS WT cell lines treated with RMC-7977 ([2]; CAPAN1, RMC-7977 4.57 nM): 1.955 and 2.566 | pERK of RAS mutant and RAS WT cell lines treated with RMC-7977 ([2]; HUPT3, RMC-7977 0.05 nM): 94.4091 and 94.8337 and 88.9674 and 91.9384 and 90.4786 and 91.137 | pERK of RAS mutant and RAS WT cell lines treated with RMC-7977 ([2]; HUPT3, RMC-7977 0.46 nM): 54.494 and 62.3496 and 67.5543 and 72.6449 and 54.2163 and 63.5857 | pERK (normalised response) ([2]; NCIH358, RMC-7977 0.05 nM): 95.3351 and 101.687 | pERK (normalised response) ([2]; NCIH358, RMC-7977 0.46 nM): 100.659 and 104.04 | pERK (normalised response) ([2]; NCIH358, RMC-7977 4.12 nM): 12.3735 and 16.2725 | pERK (normalised response) ([2]; PSN1, RMC-7977 0.05 nM): 88.9166 and 100.089 | pERK (normalised response) ([2]; RMC-7977 123.46 nM, replicates): -0.725 and -0.593 and -0.5397 and -0.3753 and -0.4309 and -0.2687 and -0.4302 and -0.02426 and 0.06955 and 0.1569 and -0.4286 and -0.3396 and -0.5772 and -0.5479 and -0.6628 and -0.5005 and -0.5749 and -0.2908 | pERK (normalised response) ([2]; RMC-7977 370.39 nM, replicates): -0.7644 and -0.7111 and -0.5907 and -0.5768 and -0.4216 and -0.3892 and -0.6033 and -0.5758 and -0.3364 and 0.5402 and -0.5111 and -0.3801 and -0.726 and -0.7102 and -0.7981 and -0.753 and -0.6335 and -0.6222 | pERK (normalised response) ([2]; RMC-7977 1111.14 nM, replicates): -0.8316 and -0.7436 and -0.6671 and -0.6486 and -0.6046 and -0.6033 and -0.5758 and -0.3138 and -0.0744 and -0.5014 and -0.4707 and -0.7846 and -0.6967 and -0.78 and -0.7169 (2×) and -0.6921 | pERK (normalised response) ([2]; RMC-7977 3333.41 nM, replicates): -0.871 and -0.8455 and -0.7297 and -0.8432 and -0.7667 and -0.6405 and -0.6259 and -0.2555 and 0.2652 and -0.5936 and -0.3995 and -0.7395 and -0.6651 and -0.762 and -0.5906 and -0.7169 and -0.656 | pERK (normalised response) ([2]; RMC-7977 10000.00 nM, replicates): -0.9243 and 0.3336 and -0.8571 and 0.183 and -0.9196 and -0.05096 and -0.6324 and -0.02426 and -0.4949 and 0.5774 and -0.5725 and 0.8637 and -0.8004 and 0.4058 and -0.7439 and 0.02254 and -0.7755 and 0.9604 | sensitivity of CYPA-high versus CYPA-low cells, inhibition of signalling (pERK) [3]: threefold | EC50 (KRAS^G13D): 4.99 nM | Kd (KRAS^G12C [4]): 40.1 nM | Kd (NRAS^Q61R): 239 nM | EC50 (KRAS^Q61H): 17.2 nM | EC50 (KRAS^G12A): 30.3 nM

From article PMC11111408, “Concurrent inhibition of oncogenic and wild-type RAS-GTP for cancer therapy” (Nature, 2024)
